Legend:
[1] = tested on: T-type calcium channels (T-channels); settings: native T-currents; cited from earlier work
tyrosinase = settings: read-out: IC50, reversible inhibitor of tyrosinase; cited from earlier work
Spodoptera litura larvae = settings: cited from earlier work
[2] = tested on: most gram-positive and some gram-negative bacteria; settings: cited from earlier work
SAMP8 mice = settings: intragastric, 4-month-old SAMP8 mice, 2 months; cited from earlier work
CYP2B6 = CYP2B6 (Homo sapiens, UniProt P20813); settings: cited from earlier work
CYP3A4 = CYP3A4 (Homo sapiens, UniProt P08684); settings: cited from earlier work
CYP2C8 = CYP2C8 (Homo sapiens, UniProt P10632); settings: cited from earlier work
CYP2C9 = CYP2C9 (Homo sapiens, UniProt P11712); settings: cited from earlier work
CYP2C19 = CYP2C19 (Homo sapiens, UniProt P33261); settings: cited from earlier work
human SIRT1 = human SIRT1 (Homo sapiens, UniProt Q96EB6); settings: read-out: IC50, inhibition of human SIRT1; cited from earlier work
human SIRT2 = human SIRT2 (Homo sapiens, UniProt Q8IXJ6); settings: read-out: IC50, inhibition of human SIRT2; cited from earlier work
[3] = molecular target: fibroblast growth factor receptor 1 (FGFR1) (Homo sapiens, UniProt P11362); settings: cited from earlier work
FGFR2 = FGFR2 (Homo sapiens, UniProt P21802); settings: cited from earlier work
SV-129 mice = settings: 450 mg/kg during a 15-minute period, after chronic simvastatin 2 mg/kg s.c. daily for 14 days; cited from earlier work
[4] = molecular target: N-methyl-D-aspartate receptors (NMDARs) (Homo sapiens, UniProt Q05586); settings: read-out: KB, competitive antagonist for the glycine-binding site of NMDARs; cited from earlier work
[5] = 510 mg/day, patients, cited from earlier work
S. aureus = settings: cited from earlier work
most molds = settings: for most molds; cited from earlier work
[6] = static toxicity tests; cited from earlier work
HSV-1 = settings: cited from earlier work
[7] = tested on: vesicular stomatitis virus (VSV); settings: cited from earlier work
poliovirus = settings: cited from earlier work
Yeast-made GLUT1 = molecular target: T1, Yeast-made GLUT1 (Rattus norvegicus, UniProt P11167); settings: cited from earlier work
T1 construct: host or cells: yeast

Human erythrocyte GLUT1 = molecular target: T2, Human erythrocyte GLUT1 (Homo sapiens, UniProt P11166); settings: cited from earlier work
T2 construct: Human erythrocyte GLUT1; from tissue; host or cells: human erythrocytes

[8] = tested on: carrageenan-induced edema and nociception; settings: 25, 50 or 100 mg/kg, i.p., immediately and 2 h after injection of carrageenan; cited from earlier work
[9] = tested on: fever induced by lipopolysaccharide (LPS); settings: 50 or 100 mg/kg, i.p., 0 and 2 h, rats; cited from earlier work
COX-2 = COX-2 (Homo sapiens, UniProt P35354); settings: read-out: IC50, inhibition of COX-2 activity; cited from earlier work
TRPM8 = TRPM8 (Homo sapiens, UniProt Q7Z2W7); settings: read-out: EC50, agonist of TRPM8; cited from earlier work
hERG channel = hERG channel (Homo sapiens, UniProt Q12809); settings: read-out: IC50, hERG channel blocker; cited from earlier work
THP1 HMGB1 Lucia cells = test: Pyroptosis inhibition luciferase assay (LPS + nigericin, HMGB1 luciferase reporter, QUANTI-Luc); settings: 1 μg/ml LPS 3 h, then 10 μM nigericin 3 h
[10] = tested on: fibroblasts, peripheral blood mononuclear cells (PBMCs), myoblasts; test: Reversal of aging (reducing predicted age) in cultured young/old cells contacted with disulfiram plus potentiating ingredients; settings: concentrations 0.000005 to 80 μM; potentiating ingredient up to 25 μM
[11] = tested on: periodontopathic and cariogenic bacteria; settings: cited from earlier work
β-glucosidase = settings: cited from earlier work

human SIRT1, sequence (Q96EB6 whole entry): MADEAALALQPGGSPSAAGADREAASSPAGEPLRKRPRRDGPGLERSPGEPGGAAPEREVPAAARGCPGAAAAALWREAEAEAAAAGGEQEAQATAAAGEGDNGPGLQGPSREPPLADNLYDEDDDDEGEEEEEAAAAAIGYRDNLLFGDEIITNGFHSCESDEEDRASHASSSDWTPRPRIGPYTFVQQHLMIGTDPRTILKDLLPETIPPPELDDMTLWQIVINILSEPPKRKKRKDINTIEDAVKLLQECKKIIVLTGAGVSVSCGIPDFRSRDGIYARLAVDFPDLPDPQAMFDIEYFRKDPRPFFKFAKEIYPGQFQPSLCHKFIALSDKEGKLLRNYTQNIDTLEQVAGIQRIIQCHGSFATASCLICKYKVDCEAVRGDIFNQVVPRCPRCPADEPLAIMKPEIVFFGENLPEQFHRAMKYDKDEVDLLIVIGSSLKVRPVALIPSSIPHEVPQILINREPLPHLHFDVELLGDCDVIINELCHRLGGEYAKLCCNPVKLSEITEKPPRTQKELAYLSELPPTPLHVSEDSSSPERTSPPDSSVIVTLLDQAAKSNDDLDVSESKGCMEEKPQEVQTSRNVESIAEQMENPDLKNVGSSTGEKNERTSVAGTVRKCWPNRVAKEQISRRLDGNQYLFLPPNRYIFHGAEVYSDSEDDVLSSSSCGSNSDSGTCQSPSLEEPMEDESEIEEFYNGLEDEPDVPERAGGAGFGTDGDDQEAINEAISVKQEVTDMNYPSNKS
T2 sequence (P11166 whole entry): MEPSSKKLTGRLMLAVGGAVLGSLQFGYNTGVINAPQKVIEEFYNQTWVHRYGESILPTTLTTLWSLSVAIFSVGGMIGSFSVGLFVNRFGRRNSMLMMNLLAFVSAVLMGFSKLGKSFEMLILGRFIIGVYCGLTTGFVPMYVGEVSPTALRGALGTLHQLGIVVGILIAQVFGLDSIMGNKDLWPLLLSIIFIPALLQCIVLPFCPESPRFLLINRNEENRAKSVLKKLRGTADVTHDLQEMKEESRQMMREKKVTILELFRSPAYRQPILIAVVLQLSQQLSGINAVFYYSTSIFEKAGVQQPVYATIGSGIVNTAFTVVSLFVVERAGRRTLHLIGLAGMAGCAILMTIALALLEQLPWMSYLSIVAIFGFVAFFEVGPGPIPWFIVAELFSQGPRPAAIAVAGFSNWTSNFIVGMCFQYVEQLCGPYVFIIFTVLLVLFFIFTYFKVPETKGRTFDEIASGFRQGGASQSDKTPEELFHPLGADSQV
fibroblast growth factor receptor 1 (FGFR1), sequence (P11362 22-822, species assumed): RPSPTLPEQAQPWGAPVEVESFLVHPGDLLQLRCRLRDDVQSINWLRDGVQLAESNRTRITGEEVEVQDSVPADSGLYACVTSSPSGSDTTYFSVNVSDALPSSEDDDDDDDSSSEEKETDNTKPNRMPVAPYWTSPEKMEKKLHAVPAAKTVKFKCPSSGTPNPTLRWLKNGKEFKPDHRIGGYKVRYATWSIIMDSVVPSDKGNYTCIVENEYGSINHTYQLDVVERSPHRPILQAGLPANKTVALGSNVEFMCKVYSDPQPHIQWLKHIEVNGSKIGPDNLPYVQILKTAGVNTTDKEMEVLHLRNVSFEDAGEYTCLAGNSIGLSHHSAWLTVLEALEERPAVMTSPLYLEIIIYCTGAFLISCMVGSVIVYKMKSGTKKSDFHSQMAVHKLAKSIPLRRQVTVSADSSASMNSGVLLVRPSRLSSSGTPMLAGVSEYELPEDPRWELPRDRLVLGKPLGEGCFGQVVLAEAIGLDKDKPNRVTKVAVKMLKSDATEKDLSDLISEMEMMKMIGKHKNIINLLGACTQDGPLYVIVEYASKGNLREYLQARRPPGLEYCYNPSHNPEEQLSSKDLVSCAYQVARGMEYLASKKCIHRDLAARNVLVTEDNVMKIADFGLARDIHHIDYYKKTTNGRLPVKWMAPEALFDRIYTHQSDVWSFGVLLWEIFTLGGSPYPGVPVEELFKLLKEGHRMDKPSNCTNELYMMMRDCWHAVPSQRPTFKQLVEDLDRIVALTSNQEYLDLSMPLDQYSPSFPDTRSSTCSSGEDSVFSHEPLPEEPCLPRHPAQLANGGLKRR
CYP2C19, sequence (P33261 whole entry): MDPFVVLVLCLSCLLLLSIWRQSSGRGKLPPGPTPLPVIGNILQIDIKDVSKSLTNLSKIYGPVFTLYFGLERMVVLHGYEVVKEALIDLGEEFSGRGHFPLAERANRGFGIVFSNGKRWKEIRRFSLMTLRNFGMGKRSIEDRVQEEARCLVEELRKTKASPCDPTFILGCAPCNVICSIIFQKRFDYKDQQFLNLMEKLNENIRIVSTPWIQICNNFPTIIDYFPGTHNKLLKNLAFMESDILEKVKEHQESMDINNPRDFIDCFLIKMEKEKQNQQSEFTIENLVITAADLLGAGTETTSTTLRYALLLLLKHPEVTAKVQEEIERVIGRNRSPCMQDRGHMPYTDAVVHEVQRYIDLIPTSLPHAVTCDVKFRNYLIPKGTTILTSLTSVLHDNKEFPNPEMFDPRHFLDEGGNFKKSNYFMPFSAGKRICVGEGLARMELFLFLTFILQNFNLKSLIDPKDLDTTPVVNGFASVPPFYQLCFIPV
human SIRT2, sequence (Q8IXJ6 whole entry): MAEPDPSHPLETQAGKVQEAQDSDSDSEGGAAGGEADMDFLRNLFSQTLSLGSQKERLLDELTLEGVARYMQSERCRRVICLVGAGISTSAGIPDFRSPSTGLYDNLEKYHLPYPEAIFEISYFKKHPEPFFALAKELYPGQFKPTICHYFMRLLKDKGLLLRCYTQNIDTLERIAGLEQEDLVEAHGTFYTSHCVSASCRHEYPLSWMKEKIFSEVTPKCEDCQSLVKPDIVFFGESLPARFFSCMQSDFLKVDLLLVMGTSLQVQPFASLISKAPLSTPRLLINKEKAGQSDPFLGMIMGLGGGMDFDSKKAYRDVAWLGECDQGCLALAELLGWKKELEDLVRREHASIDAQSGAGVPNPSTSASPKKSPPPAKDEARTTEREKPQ
CYP2C9, sequence (P11712 whole entry): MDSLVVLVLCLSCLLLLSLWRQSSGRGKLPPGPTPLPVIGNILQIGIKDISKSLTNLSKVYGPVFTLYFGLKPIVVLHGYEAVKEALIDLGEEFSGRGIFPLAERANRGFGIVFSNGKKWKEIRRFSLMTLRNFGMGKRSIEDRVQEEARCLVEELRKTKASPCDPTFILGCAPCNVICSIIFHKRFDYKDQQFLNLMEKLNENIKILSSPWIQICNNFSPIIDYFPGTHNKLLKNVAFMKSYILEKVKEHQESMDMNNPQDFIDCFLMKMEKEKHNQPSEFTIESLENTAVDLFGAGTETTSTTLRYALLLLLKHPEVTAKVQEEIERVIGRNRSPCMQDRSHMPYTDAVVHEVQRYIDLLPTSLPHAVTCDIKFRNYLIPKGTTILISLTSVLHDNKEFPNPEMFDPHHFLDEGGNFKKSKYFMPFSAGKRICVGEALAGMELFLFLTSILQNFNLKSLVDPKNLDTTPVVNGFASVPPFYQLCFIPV
TRPM8, sequence (Q7Z2W7 whole entry, species assumed): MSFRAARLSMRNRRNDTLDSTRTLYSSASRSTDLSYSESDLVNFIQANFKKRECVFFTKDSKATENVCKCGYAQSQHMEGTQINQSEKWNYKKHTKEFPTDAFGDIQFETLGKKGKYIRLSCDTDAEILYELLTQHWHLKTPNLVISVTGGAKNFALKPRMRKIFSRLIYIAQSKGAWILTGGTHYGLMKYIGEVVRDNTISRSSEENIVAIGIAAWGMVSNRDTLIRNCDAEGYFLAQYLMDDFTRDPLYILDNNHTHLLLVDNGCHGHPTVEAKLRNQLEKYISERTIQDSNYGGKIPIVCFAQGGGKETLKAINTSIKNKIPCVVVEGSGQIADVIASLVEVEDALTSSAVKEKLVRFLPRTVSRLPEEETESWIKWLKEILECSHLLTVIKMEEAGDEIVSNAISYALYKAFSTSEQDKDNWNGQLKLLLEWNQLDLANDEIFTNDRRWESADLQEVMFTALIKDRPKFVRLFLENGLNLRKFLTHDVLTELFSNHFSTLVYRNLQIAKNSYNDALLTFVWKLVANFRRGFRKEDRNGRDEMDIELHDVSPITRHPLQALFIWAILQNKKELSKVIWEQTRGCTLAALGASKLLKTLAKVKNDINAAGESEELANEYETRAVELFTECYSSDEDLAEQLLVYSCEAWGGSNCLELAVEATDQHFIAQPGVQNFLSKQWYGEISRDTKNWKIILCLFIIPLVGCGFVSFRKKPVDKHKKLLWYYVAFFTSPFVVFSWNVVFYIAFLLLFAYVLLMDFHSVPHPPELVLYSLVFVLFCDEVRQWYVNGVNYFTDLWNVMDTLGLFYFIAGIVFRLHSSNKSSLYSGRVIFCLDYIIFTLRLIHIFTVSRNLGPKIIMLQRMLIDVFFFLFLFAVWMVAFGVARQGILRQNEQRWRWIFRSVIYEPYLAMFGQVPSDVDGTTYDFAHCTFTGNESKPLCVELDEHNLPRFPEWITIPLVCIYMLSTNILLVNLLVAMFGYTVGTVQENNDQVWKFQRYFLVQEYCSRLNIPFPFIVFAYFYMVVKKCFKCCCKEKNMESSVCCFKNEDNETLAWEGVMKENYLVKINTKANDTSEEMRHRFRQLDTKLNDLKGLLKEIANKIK
T1 sequence (P11167 whole entry): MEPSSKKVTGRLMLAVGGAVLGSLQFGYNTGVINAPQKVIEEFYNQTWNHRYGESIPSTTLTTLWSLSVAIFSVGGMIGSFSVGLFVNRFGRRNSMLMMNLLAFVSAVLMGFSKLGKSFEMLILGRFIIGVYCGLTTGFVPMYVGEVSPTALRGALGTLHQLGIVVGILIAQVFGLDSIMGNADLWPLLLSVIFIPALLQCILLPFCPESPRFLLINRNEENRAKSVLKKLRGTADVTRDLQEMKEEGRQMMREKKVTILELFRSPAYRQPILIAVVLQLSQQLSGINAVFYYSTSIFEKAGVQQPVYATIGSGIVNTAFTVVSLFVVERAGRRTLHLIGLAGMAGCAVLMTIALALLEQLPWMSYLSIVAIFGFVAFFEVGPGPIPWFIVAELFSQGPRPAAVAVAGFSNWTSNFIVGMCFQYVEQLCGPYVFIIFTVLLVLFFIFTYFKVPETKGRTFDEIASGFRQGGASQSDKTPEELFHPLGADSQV

CCCCCCCCO [1-Octanol]
IC50 [1]: 4 µM

O=C(O)CCC(=O)C(=O)O [2-Ketoglutaric acid]
IC50 (tyrosinase): 15000 µM

CCCC=C1OC(=O)c2ccccc21 [3-Butylidenephthalide]
LC50 larvicidal activity (Spodoptera litura larvae): activity (LC50 of 1.56 mg/g for Spodoptera

O=C(O)c1ccc(O)cc1 [4-Hydroxybenzoic acid]
IC50, inhibition of most gram-positive and some gram-negative bacteria [2]: of 160 μg/mL.

CCCCC1OC(=O)c2ccccc21 (stereo not shown) [Butylphthalide]
loss of choline acetyltransferase (ChAT)-positive neurons in the medial septal nucleus and vertical limb of the diagonal band (SAMP8 mice): diagonal band in SAMP8 mice was slowed down, | spatial learning and memory ability (SAMP8 mice): 2 months significantly improved spatial learning a

C[C@@H]1CC[C@H]2C(C)(C)[C@H]3C[C@@]12CC[C@@]3(C)O [Cedrol]
Ki (CYP2B6): 0.9 µM | Ki (CYP3A4): 3.4 µM | inhibitory effect on CYP2C8 (CYP2C8): has weak inhibitory effect on CYP2C8, | inhibitory effect on CYP2C9 (CYP2C9): has weak inhibitory effect on CYP2C8, | inhibitory effect on CYP2C19 (CYP2C19): has weak inhibitory effect on CYP2C8,

O=C1CCc2ccccc2O1 [Dihydrocoumarin]
IC50 (human SIRT1): 208 µM | IC50 (human SIRT2): 295 µM

COc1cc(/C=C/C(=O)O)ccc1O [Ferulic acid (sodium)]
IC50 [3]: 3.78 µM | IC50 (FGFR2): 12.5 µM

N=C(N)NCCC[C@H](N)C(=O)O [L-Arginine]
hyperemia amplified and sustained (SV-129 mice): hyperemia (38%) and increases absolute brain

N[C@@H](Cc1ccccc1)C(=O)O [L-Phenylalanine]
Kb [4]: 573 µM

C[N+](C)(C)C[C@H](O)CC(=O)[O-] [L-carnitine]
total time for dozing off during the daytime, calculated from the sleep logs ([5]; compared with placebo-treated periods): improved the total time for dozing off during the | serum acylcarnitine levels [5]: (Levocarnitine) efficiently increased serum acyl- | serum triglycerides concentration [5]: carnitine levels, and reduced serum triglycerides

CCCCCCCCCCCC(=O)O [Lauric acid]
EC50 for S. aureus (S. aureus): 6 µg/mL

C[C@@H]1C/C=C/C=C/C=C/C=C/[C@H](O[C@@H]2O[C@H](C)[C@@H](O)[C@H](N)[C@@H]2O)C[C@@H]2O[C@](O)(C[C@@H](O)C[C@H]3O[C@@H]3/C=C/C(=O)O1)C[C@H](O)[C@H]2C(=O)O [Natamycin]
MIC (minimum inhibitory concentration) (most molds): concentration) of less than 10 ppm for most molds.

CCCCCCCCC(=O)NCc1ccc(O)c(OC)c1 [Nonivamide]
4d-EC50 [6]: exhibits 4d-EC50 value of 5.1 mg/L in static

CCCCCCCCOC(=O)c1cc(O)c(O)c(O)c1 [Octyl gallate]
antiviral effect against HSV-1 (HSV-1): Octyl gallate shows a marked antiviral effect | antiviral effect against vesicular stomatitis virus (VSV) [7]: Octyl gallate shows a marked antiviral effect | antiviral effect against poliovirus (poliovirus): Octyl gallate shows a marked antiviral effect

O=C(CCc1ccc(O)cc1)c1c(O)cc(O)cc1O [Phloretin]
IC50 (Yeast-made GLUT1): 49 µM | IC50 (Human erythrocyte GLUT1): 61 µM

Cc1cc2nc3c(=O)[nH]c(=O)nc-3n(C[C@H](O)[C@H](O)[C@H](O)CO)c2cc1C [Riboflavin]
antinociceptive effect [8]: antinociceptive effects. The antinociceptive effect | fever induced by lipopolysaccharide (LPS) [9]: 2 h) also inhibited the fever induced by lipopoly-

COc1cc(C=O)cc(OC)c1O [Syringaldehyde]
IC50 (COX-2): 19.2 µM

CCNC(=O)C1CC(C)CCC1C(C)C (stereo not shown) [TRPM8 antagonist WS-3]
EC50 (TRPM8): 3.7 µM

O=C(OC[C@H]1O[C@@H](OC(=O)c2cc(O)c(O)c(OC(=O)c3cc(O)c(O)c(O)c3)c2)[C@H](OC(=O)c2cc(O)c(O)c(OC(=O)c3cc(O)c(O)c(O)c3)c2)[C@@H](OC(=O)c2cc(O)c(O)c(OC(=O)c3cc(O)c(O)c(O)c3)c2)[C@@H]1OC(=O)c1cc(O)c(O)c(OC(=O)c2cc(O)c(O)c(O)c2)c1)c1cc(O)c(O)c(OC(=O)c2cc(O)c(O)c(O)c2)c1 [Tannic acid]
IC50 (hERG channel): 3.4 µM

O=C/C=C/c1ccccc1 [cinnamaldehyde, (2E)-3-Phenyl-2-propenal]
inhibition of pyroptosis (HMGB1 luciferase reporter in supernatant) (THP1 HMGB1 Lucia cells): no effect | ability to potentiate disulfiram in reversing aging of cells [10]: identified as a potentiating ingredient

CC1=CCC(C(C)(C)O)CC1 (stereo not drawn) [α-Terpineol]
antimicrobial activity against periodontopathic and cariogenic bacteria [11]: Labill, exhibits strong antimicrobial activity

Rebaudioside A
IC 50 (Target: β-glucosidase) (β-glucosidase): IC 50: 35.01 ug/mL
